Source: patent US12031136B2, “Treatment for skeletal diseases caused by intracellular protein trafficking defects” (Oklahoma Medical Research Foundation, priority 2017, dated 2024)
Entries after “also recorded” stand apart in the source; their conditions may differ.

Tests used:
[1] = system: mutant MBTPS1 transcripts; assay: Nonsense-mediated mRNA decay test in parental immortalized B cells; format: cell-based, human; details: cycloheximide 100 μM, 6 hours
Protocol: (§1) Gene expression analyses with qPCR. Gene expression levels in the patient and irrelevant healthy control immortalized B cells or immortalized fibroblasts were analyzed by qPCR using primers listed in Supplemental Table 3. Total RNA extracted from the cells using Trizol was converted to cDNA using the M-MLV Reverse Transcriptase system. PCR analysis of cDNA was performed with the SYBR Green qPCR system using a CFX96 Real-time system instrument (Bio-Rad). To test for NMD, treatment with cycloheximide (100 μM) was performed by incubating patient's parental immortalized B cells for 6 hours, and then transcripts were analyzed by direct sequencing.

BBF2H7 = assay: Western blotting of endogenous BBF2H7 cleavage in AMO-treated patient fibroblasts; format: cell-based, human; details: AMO vs control oligo
Protocol: (§2) Western blotting. Protein extracts from cultured cells or tissues were prepared using a 1% Triton X-100-based cell lysis buffer. Lysates were applied to an 8%-12% SDS-PAGE gel. Separated proteins were transferred onto an Immobilon-P membrane (Millipore). After blots were blocked, the membranes were incubated with antibodies and were then developed with ECL systems. Exposed X-ray films were scanned and analyzed with ImageJ software (NIH). For protein extraction from cartilage from mouse ribs, proteins from frozen tissues were extracted into 8 M urea lysis buffer using Bead-beater (34) (Biospec Products Inc.). For detecting endogenous GPT in immortalized B cells, 1.5×10^7 cells were suspended in hypotonic lysis buffer and then ultrasonicated for 30 seconds. After removing debris by spinning at 1,000 g for 3 minutes, supernatant was further ultracentrifuged at 100,000 g for 2 hours. The membrane fractions were solubilized with 3% Triton X-100-containing lysis buffer, 150 μg protein was analyzed by Western blotting.
AMO. […] After 12, 24, and 48 hours, RNA was extracted for quantitative RT-PCR as well as cloning of MBTPS1 cDNA. The following primer pair was used to quantify a MBTPS1 transcript with 41-bp deletion in exon 9: forward primer targeting the boundary exons 7 and 8, 5′-[…]-3′; reverse primer targeting exon 10, 5′-CTGG-TAGCTCCTTCAAAGTC-3′.

[2] = system: UPR- and COP-II-related genes; assay: qRT-PCR of UPR- and COP-II-related genes in patient fibroblasts after AMO; format: cell-based, human; details: patient fibroblasts treated with AMO
Protocol: as §1
AMO. The AMO (5′-AGAAAAGCGGGCGATGTTAcCTTCA-3′ [the lowercase “c” represents the mutated base compared to healthy control]) against exon 9 in the maternal mutant transcript containing cryptic splice donor site was designed (Gene Tools Inc.) (38). Forty thousand fibroblasts were seeded onto a 24-well plate. […] After 12, 24, and 48 hours, RNA was extracted for quantitative RT-PCR as well as cloning of MBTPS1 cDNA. The following primer pair was used to quantify a MBTPS1 transcript with 41-bp deletion in exon 9: forward primer targeting the boundary exons 7 and 8, 5′-[…]-3′; reverse primer targeting exon 10, 5′-CTGG-TAGCTCCTTCAAAGTC-3′.

MBTPS1 transcripts = assay: MBTPS1 transcript analysis (qRT-PCR and cloning of exon 9 cDNA) in fibroblasts treated with AMO; format: cell-based, human
Protocol: as §1
AMO. The AMO (5′-AGAAAAGCGGGCGATGTTAcCTTCA-3′ [the lowercase “c” represents the mutated base compared to healthy control]) against exon 9 in the maternal mutant transcript containing cryptic splice donor site was designed (Gene Tools Inc.) (38). Forty thousand fibroblasts were seeded onto a 24-well plate. Introduction of AMO (10 μM) in maternal and patient fibroblasts was carried out using the Endo-Porter (6 μM) peptide delivery system (Gene Tools Inc.). After 12, 24, and 48 hours, RNA was extracted for quantitative RT-PCR as well as cloning of MBTPS1 cDNA. The following primer pair was used to quantify a MBTPS1 transcript with 41-bp deletion in exon 9: forward primer targeting the boundary exons 7 and 8, 5′-[…]-3′; reverse primer targeting exon 10, 5′-CTGG-TAGCTCCTTCAAAGTC-3′.

patient fibroblasts = assay: Secreted procollagen I ELISA of fibroblast supernatant; format: cell-based, human
Protocol: Measurement of secreted procollagen I. Supernatant from cultured fibroblasts was collected at 48 hours after treatment with AMO and was then diluted 500-fold with PBS (39). Secreted procollagen 1a in diluted samples was measured with an ELISA kit according to the manufacturer's instructions (R&D Systems).

[3] = Growth hormone replacement therapy in the patient; format: in vivo, human; details: started, discontinued after 1 year
Tango1 and Hsp47 = assay: Western blotting of Sec23a, Tango1 and Hsp47 in fibroblasts; format: cell-based, human; details: patient fibroblasts treated with S1P inhibitor
Protocol: as §2

[4] = system: maternal and patient fibroblasts; assay: Lysosomal enzyme secretion and lysosome morphology in fibroblasts treated with S1P inhibitor; format: cell-based, human; details: maternal and patient fibroblasts treated with PF-429242

For `C[C@@H]1C[C@@H]([C@H](O)CC2CC(=O)NC(=O)C2)C(=O)[C@@H](C)C1` [cycloheximide], the “mutant MBTPS1 transcripts (NMD inhibition)” value [1] was “stabilized”.

With “AMO: Antisense morpholino oligo 5′-AGAAAAGCGGGCGATGTTAcCTTCA-3′ against exon 9 cryptic splice donor site in the maternal mutant MBTPS1 transcript (antisense AGAAAAGCGGGCGATGTTACCTTCA; all phosphorodiamidate morpholino (PMO))” the “S1P-dependent activation (cleavage) of BBF2H7” value (BBF2H7) was “improved cleavage; also recorded: increased”, the “expression of UPR- and COP-II-related genes” value [2] was “increased” and the “41-bp-deleted pathogenic splice variant” value (MBTPS1 transcripts; patient cells, compared with control oligo) was “substantial decrease”. The “increase of total MBTPS1 expression” value (MBTPS1 transcripts; patient fibroblasts treated with AMO, data not shown) was 10 fold, the “increase in properly spliced MBTPS1 transcripts” value (MBTPS1 transcripts; patient fibroblasts, AMO 10 μM, compared with control oligo) was 20 fold and the “increase in correctly spliced transcript (cloned exon 9 of MBTPS1 cDNA)” value (MBTPS1 transcripts; patient fibroblasts, compared with control oligo treatment) was 2 fold. The “increase of absolute maternal transcript with a missense mutation (p.D365G)” value (MBTPS1 transcripts; patient fibroblasts, compared with control oligo-treated cells) was 20 fold and the “secretion of collagen I (secreted procollagen I)” value (patient fibroblasts; patient fibroblasts, 48 hours after AMO) was “increased”.

For “Human growth hormone: Human growth hormone replacement therapy given to the patient”, the “clinical response (growth)” value [3] was “limited response”.

In the case of PF-429242, the “Tango1 and Hsp47 protein” value (Tango1 and Hsp47) is reported as “further decreased”, the lysosome size [4] is reported as “lysosomal hypertrophy” and the “secretion of lysosomal enzymes” value [4] is reported as “elevated”. The “collagen I secretion” value (patient fibroblasts; patient fibroblasts treated with S1P inhibitor) was “impaired”.
